SMILES strings stand for the structures.

One test addresses cynomolgus monkey DPP9 (Macaca fascicularis, UniProt A0A2K5TQ54). In words: Steady-state inhibition of isolated cloned DPP9 at 37°C (gly-pro-pNA). It is filed as biochemical. The settings on record: mean ± SD (n). How it is done:
(§1) All solutions were preheated to 37°C.
(§2) DPP8 and DPP9 were tested under identical conditions.

A further test addresses cynomolgus monkey DPP8 (Macaca fascicularis, UniProt A0A2K5VHB7). In words: Steady-state inhibition of isolated cloned DPP8 at 37°C (gly-pro-pNA). It counts as biochemical. The settings on record: mean ± SD (n). How it is done:
as §1, §2

Test [1] concerns plasma DPP activity. In words: Cynomolgus monkey ex vivo plasma DPP inhibition, ala-pro-AFC assay. It counts as in vivo. The settings on record: cynomolgus monkeys, single oral doses, 24 hours post dose. How it is done: (§3) Male and female cynomolgus monkeys (Charles River BRF, Houston, TX), were housed in an AAALAC-accredited facility (on a 12-hour light/dark cycle) in stainless-steel cages. They had access to purified tap water ad libitum and were fed Harlan Diet 2050 C (Certified 20% protein primate diet). […]. Doses were administered once weekly using a crossover design such that no monkeys received the same dose twice. For the ex vivo cynomolgus monkey assays, blood samples (approximately 0.5 ml) were collected prior to dosing and 1, 2, 4, 6, 8, and 24 hours post dosing in tubes containing K2EDTA. Tubes were inverted several times to ensure mixing, and placed on ice. Samples were centrifuged at 5000 rpm for 10 minutes at 4°C for plasma isolation. Plasma was stored at -20°C until analyzed for DPP activity. No difference in DPP inhibition was noted between males and females and so data were combined for analyses.
(§4) This procedure produced a 3-fold dilution of plasma.

The test system of test [2] is plasma DPP activity. In words: Cynomolgus monkey ex vivo plasma DPP inhibition, gly-pro-pNA assay. It counts as in vivo. The settings on record: cynomolgus monkeys, single oral doses, 24 hours post dose, same samples. How it is done:
as §3
This assay was reported by Merck as used in their clinical trials, using gly-pro-pNA as substrate. […] Activity, the rate of release of free pNA from the pseudo-substrate, was assayed at 30°C, using a Spectramax 340 plate reader ([…]) with rate determining software. Absorbance at 390 nm was measured. Results were expressed as arbitrary units because standard pNA curves were not run for all experiments. The extent of DPP inhibition and IC50 values were calculated as described above.

Test [3] deals with cynomolgus monkey plasma DPP activity (Macaca fascicularis, UniProt A0A2K5VXJ1). In words: Ala-pro-AFC plasma DPP inhibition assay in vitro. It counts as biochemical.
Chain of cynomolgus monkey plasma DPP activity (A0A2K5VXJ1 39-766): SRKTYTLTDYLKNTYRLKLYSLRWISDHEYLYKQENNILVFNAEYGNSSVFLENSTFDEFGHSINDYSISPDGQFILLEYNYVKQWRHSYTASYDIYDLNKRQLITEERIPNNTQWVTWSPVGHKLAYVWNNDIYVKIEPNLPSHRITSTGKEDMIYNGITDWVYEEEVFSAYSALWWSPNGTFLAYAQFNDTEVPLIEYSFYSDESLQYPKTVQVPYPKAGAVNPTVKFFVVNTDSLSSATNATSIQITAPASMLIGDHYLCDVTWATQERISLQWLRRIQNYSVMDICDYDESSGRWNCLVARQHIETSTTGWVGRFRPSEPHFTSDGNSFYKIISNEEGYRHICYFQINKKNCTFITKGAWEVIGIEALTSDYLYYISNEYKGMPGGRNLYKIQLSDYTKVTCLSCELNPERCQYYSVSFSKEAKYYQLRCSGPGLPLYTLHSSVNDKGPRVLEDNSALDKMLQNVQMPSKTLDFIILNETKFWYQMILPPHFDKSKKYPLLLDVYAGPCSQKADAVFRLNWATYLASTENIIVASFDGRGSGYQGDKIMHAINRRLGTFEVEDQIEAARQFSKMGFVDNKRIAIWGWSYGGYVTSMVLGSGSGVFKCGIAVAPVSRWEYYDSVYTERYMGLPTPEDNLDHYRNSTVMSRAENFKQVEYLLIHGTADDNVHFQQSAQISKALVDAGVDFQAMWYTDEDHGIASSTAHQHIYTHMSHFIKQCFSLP
From the text: as §4

The target in another test is T1, cynomolgus monkey DPP4 (UniProt A0A075TEP6).
T1 construct: made in house
T1 sequence (A0A075TEP6 1-766): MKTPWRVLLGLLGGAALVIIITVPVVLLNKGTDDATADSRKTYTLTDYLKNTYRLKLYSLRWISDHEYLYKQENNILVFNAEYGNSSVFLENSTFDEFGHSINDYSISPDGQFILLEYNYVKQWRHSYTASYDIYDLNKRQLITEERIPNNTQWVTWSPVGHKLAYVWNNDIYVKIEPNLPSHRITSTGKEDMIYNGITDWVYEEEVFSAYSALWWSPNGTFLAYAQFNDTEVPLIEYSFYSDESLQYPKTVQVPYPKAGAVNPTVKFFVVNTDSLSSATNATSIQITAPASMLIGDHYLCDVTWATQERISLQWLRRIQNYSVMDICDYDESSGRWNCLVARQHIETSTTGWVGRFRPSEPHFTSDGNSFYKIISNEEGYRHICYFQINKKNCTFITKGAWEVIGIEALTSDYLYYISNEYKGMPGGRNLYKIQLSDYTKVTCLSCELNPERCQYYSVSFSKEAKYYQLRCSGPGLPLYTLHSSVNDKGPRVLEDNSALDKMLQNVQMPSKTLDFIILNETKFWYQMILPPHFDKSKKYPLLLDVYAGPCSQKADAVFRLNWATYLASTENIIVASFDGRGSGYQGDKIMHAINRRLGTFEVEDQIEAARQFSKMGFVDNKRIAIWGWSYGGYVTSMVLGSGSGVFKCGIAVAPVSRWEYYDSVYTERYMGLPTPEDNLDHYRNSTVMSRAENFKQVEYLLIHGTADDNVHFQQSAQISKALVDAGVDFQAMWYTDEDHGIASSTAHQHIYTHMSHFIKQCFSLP
Kind of test: Steady-state inhibition of isolated cloned DPP4 at 37°C (gly-pro-pNA). It is filed as biochemical. The settings on record: mean ± SD (n). How it is done: as §1, §2

The target of the next test is T2, human DPP9 (Homo sapiens, UniProt Q86TI2).
T2 construct: made in house
T2 sequence (Q86TI2 whole entry): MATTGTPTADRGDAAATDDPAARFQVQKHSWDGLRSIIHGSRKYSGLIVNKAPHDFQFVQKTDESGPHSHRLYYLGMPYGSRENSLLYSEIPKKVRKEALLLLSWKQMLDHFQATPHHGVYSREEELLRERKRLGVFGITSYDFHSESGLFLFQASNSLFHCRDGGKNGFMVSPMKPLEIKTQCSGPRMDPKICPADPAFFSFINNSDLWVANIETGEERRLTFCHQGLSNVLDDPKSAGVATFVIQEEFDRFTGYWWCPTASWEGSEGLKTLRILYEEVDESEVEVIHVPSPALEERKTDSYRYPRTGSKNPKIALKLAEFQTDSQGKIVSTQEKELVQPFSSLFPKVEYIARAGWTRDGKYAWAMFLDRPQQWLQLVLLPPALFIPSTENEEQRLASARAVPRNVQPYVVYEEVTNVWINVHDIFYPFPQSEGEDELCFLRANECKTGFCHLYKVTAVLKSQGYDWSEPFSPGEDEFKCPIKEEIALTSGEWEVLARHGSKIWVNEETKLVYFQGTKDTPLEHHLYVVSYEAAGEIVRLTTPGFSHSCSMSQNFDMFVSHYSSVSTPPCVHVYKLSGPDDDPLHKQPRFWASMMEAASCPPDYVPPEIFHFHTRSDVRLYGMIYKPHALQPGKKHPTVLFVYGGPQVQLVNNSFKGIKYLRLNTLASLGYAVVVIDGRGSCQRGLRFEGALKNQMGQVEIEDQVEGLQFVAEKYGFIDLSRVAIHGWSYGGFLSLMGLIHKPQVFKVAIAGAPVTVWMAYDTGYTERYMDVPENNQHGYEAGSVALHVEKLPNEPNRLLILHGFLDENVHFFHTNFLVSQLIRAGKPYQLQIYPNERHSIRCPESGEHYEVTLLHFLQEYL
Kind of test: Steady-state inhibition of isolated cloned DPP9 at 37°C (gly-pro-pNA). It is filed as biochemical. How it is done: (§5) All solutions were preheated to 37°C. Inhibitors were preincubated with enzyme for 40 minutes prior to assay initiation. […] Softmax Pro software from Molecular Devices (Sunnyvale, CA) was used to obtain the initial slope of the reaction in each well, and the fits were inspected to insure that the reactions were linear to a correlation coefficient of 0.99. An Excel template with XLFit (IDBS, Guildford, U.K.) was used for determination of the IC50 for inhibition at each substrate concentration. […] Therefore, IC50 was then converted to Ki assuming competitive inhibition according to:
(§6) The calculated Ki values for competitive inhibition at each substrate concentration were averaged and reported. DPP8 and DPP9 were tested under identical conditions. The in vitro assays were also used to determine substrate Km, by varying substrate concentration across an appropriate range. Km was calculated using GraFit software (Erithacus, Surrey U.K.)

The target of another test is T3, human DPP8 (Homo sapiens, UniProt Q6V1X1).
T3 construct: made in house
T3 sequence (Q6V1X1 whole entry): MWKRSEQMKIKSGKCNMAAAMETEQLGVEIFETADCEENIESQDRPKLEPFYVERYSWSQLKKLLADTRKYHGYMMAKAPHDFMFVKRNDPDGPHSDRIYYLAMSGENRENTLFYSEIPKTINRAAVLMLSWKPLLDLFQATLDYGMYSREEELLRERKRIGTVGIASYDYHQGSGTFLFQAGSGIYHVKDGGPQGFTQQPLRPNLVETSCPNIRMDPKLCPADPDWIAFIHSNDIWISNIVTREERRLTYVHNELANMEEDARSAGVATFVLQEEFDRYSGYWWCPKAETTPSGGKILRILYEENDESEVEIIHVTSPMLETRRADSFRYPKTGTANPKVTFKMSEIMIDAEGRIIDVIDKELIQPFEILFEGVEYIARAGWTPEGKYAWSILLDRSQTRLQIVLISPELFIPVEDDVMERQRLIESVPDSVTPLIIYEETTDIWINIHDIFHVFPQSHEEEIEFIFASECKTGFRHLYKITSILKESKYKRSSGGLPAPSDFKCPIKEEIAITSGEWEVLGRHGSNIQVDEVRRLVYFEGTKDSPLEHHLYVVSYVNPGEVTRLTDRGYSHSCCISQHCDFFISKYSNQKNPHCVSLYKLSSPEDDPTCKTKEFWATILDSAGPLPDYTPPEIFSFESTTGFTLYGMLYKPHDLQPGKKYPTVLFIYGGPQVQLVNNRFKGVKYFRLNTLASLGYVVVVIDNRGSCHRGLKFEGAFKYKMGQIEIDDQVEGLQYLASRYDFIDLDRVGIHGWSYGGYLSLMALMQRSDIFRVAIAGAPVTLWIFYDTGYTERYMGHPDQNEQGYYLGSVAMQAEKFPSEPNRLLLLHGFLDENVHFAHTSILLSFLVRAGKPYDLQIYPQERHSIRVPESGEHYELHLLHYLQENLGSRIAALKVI
Kind of test: Steady-state inhibition of isolated cloned DPP8 at 37°C (gly-pro-pNA). It is filed as biochemical. How it is done:
as §5, §6

Where [4] appears, read: human, 37°C, gly-pro-pNA, mean ± SD (n).

Chain of cynomolgus monkey DPP9 (A0A2K5TQ54 156-951): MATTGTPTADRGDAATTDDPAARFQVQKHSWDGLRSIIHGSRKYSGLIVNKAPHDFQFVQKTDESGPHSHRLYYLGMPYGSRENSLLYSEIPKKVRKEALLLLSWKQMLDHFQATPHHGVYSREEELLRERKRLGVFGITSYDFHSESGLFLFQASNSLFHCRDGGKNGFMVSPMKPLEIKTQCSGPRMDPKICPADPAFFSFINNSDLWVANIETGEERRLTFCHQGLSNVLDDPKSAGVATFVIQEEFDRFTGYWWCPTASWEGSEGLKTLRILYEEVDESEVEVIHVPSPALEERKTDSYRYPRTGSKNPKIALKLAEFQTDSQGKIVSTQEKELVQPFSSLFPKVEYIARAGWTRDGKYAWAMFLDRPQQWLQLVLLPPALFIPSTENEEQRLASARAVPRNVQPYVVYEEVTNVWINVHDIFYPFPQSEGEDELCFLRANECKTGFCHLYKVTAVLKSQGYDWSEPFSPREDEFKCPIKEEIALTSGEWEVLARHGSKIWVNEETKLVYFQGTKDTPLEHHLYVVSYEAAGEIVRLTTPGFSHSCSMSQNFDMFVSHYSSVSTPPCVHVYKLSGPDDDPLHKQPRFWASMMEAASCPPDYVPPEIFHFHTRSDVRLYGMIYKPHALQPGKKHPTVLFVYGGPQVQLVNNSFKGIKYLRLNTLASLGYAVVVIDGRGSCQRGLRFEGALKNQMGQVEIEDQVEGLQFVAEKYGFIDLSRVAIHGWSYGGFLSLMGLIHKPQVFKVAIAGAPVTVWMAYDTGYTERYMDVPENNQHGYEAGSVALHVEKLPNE
Chain of cynomolgus monkey DPP8 (A0A2K5VHB7 1-898): as the sequence (Q6V1X1 whole entry) above, with M1V, I357M, P605S, P609L, N823D counted along it

A word on the Ki: it is the equilibrium dissociation constant of an inhibitor or competing ligand from its target. Regarding `N#C[C@@H]1C[C@@H]2C[C@@H]2N1C(=O)[C@@H](N)C12CC3CC(CC(O)(C3)C1)C2` [Saxagliptin, (1 S,3 S,5 S)-2-[(2 S)-2-Amino-2-(3-hydroxytricyclo[3.3.1.1^3,7]dec-1-yl)acetyl]-2-azabicyclo[3.1.0]hexane-3-carbonitrile, monohydrate], the Ki came out at 61 ± 5 nM at cynomolgus monkey DPP9 and 390 ± 82 nM at cynomolgus monkey DPP8. The “plasma DPP inhibition ex vivo” value with plasma DPP activity [1] was “close to maximal inhibition of the inhibitable plasma DPP activity at its highest doses”.

Molecule `N#C[C@@H]1CCCN1C(=O)CNC12CC3CC(CC(O)(C3)C1)C2` [Vildagliptin, reference compound] displayed a Ki at cynomolgus monkey DPP9 of 125 ± 39 nM.

Take `N[C@@H](CC(=O)N1CCn2c(nnc2C(F)(F)F)C1)Cc1cc(F)c(F)cc1F` [Sitagliptin, reference compound]: the inhibitory constant (Ki) at cynomolgus monkey DPP9 amounted to 65800 ± 7970 nM; on cynomolgus monkey DPP8, 21900 ± 17500 nM. For the same molecule, the “plasma DPP inhibition ex vivo” value with plasma DPP activity [2] was “statistically significant inhibition of plasma DPP activity at 3, 10 and 40 mg/kg doses”; with plasma DPP activity [1], “no effect on plasma DPP activity at any of the doses”. In addition, the “increase of IC50 in the ala-pro-AFC assay compared to the gly-pro-pNA assay” value in test [3] is given as 26 fold.

Turning to `N#C[C@@H]1C[C@@H]2C[C@@H]2N1C(=O)[C@@H](N)C12CC3CC(O)(CC(O)(C3)C1)C2` [5-hydroxysaxagliptin], the Ki at cynomolgus monkey DPP4 was 2.9 ± 1.1 nM; at cynomolgus monkey DPP9 it was 323 ± 60 nM; at human DPP9 (setting [4]) it was 423 ± 64 nM; on cynomolgus monkey DPP8, 2060 ± 658 nM; on human DPP8 (setting [4]), 2500 ± 727 nM. In addition, the “slow binding kinetics to DPP9” value on human DPP9 is “Neither saxagliptin nor 5-hydroxysaxagliptin exhibited slow binding kinetics”. Moreover, the “slow binding kinetics to DPP8” value at human DPP8 is recorded as “Neither saxagliptin nor 5-hydroxysaxagliptin exhibited slow binding kinetics”.

(Values after publication PMC3373380 (BMC Pharmacology, 2012).)
